According to the NIST ThermoML archive (doi:10.1021/je700236c):
Where “and” joins values, the source holds several entries; their conditions need not be identical. Identical values can stand only once.

Conditions: Gas, Buoyancy - hydrostatic balance with magnetic suspension - two sinkers

FCF [difluoromethane]
Conditions	mass density
313.15 K, 201.8 kPa	4.12 kg/m3
313.15 K, 201.9 kPa	4.121 kg/m3
313.15 K, 490.8 kPa	10.336 kg/m3 and 10.342 kg/m3
313.15 K, 791 kPa	17.275 kg/m3 and 17.277 kg/m3
313.15 K, 996.6 kPa	22.349 kg/m3 and 22.355 kg/m3
313.15 K, 1203.3 kPa	27.759 kg/m3 and 27.77 kg/m3
313.15 K, 1396.5 kPa	33.148 kg/m3 and 33.159 kg/m3
313.15 K, 1602.9 kPa	39.322 kg/m3 and 39.331 kg/m3
313.15 K, 1801.8 kPa	45.76 kg/m3
313.15 K, 1801.9 kPa	45.748 kg/m3
313.15 K, 1998.1 kPa	52.687 kg/m3 and 52.676 kg/m3
313.15 K, 2103.6 kPa	56.702 kg/m3 and 56.692 kg/m3
313.15 K, 2201.5 kPa	60.637 kg/m3 and 60.629 kg/m3
313.15 K, 2251 kPa	62.72 kg/m3 and 62.711 kg/m3
313.15 K, 2298.1 kPa	64.762 kg/m3 and 64.748 kg/m3
313.15 K, 2355.7 kPa	67.348 kg/m3
313.15 K, 2355.8 kPa	67.343 kg/m3
313.15 K, 2402.7 kPa	69.541 kg/m3
313.15 K, 2403 kPa	69.545 kg/m3
313.15 K, 2435 kPa	71.084 kg/m3
313.15 K, 2435.1 kPa	71.095 kg/m3
313.15 K, 2450.5 kPa	71.838 kg/m3
313.15 K, 2450.6 kPa	71.855 kg/m3
313.15 K, 2472 kPa	72.903 kg/m3 and 72.918 kg/m3
323.15 K, 207.9 kPa	4.101 kg/m3 and 4.103 kg/m3
323.15 K, 499.2 kPa	10.125 kg/m3 and 10.143 kg/m3 and 10.132 kg/m3
323.15 K, 801.1 kPa	16.793 kg/m3
323.15 K, 801.2 kPa	16.794 kg/m3
323.15 K, 998.3 kPa	21.387 kg/m3 and 21.393 kg/m3
323.15 K, 1095.2 kPa	23.732 kg/m3
323.15 K, 1200.3 kPa	26.337 kg/m3
323.15 K, 1200.4 kPa	26.341 kg/m3
323.15 K, 1397.4 kPa	31.424 kg/m3 and 31.416 kg/m3
323.15 K, 1590.6 kPa	36.664 kg/m3 and 36.67 kg/m3
323.15 K, 1797.2 kPa	42.644 kg/m3 and 42.658 kg/m3
323.15 K, 2004.9 kPa	49.091 kg/m3 and 49.105 kg/m3
323.15 K, 2200.6 kPa	55.637 kg/m3 and 55.653 kg/m3
323.15 K, 2402.3 kPa	62.99 kg/m3 and 62.978 kg/m3
323.15 K, 2596.1 kPa	70.738 kg/m3 and 70.733 kg/m3
323.15 K, 2699 kPa	75.19 kg/m3
323.15 K, 2699.1 kPa	75.207 kg/m3
323.15 K, 2799 kPa	79.805 kg/m3 and 79.816 kg/m3
323.15 K, 2802.9 kPa	80.005 kg/m3 and 80.017 kg/m3
323.15 K, 2900.6 kPa	84.82 kg/m3 and 84.839 kg/m3
323.15 K, 2901.2 kPa	84.882 kg/m3 and 84.872 kg/m3
323.15 K, 2947 kPa	87.258 kg/m3 and 87.244 kg/m3
323.15 K, 2960.3 kPa	87.971 kg/m3 and 87.99 kg/m3
323.15 K, 3002.2 kPa	90.24 kg/m3
323.15 K, 3002.3 kPa	90.261 kg/m3
323.15 K, 3010.2 kPa	90.716 kg/m3 and 90.73 kg/m3
323.15 K, 3041.1 kPa	92.478 kg/m3
323.15 K, 3041.2 kPa	92.495 kg/m3
323.15 K, 3074.6 kPa	94.445 kg/m3 and 94.453 kg/m3
323.15 K, 3099.5 kPa	95.942 kg/m3 and 95.952 kg/m3
323.15 K, 3125.5 kPa	97.558 kg/m3
323.15 K, 3125.6 kPa	97.549 kg/m3
323.15 K, 3134.2 kPa	98.084 kg/m3

CC(F)(F)F [1,1,1-trifluoroethane]
Conditions	mass density
283.15 K, 203.6 kPa	7.588 kg/m3 and 7.589 kg/m3
283.15 K, 399.9 kPa	15.605 kg/m3
283.15 K, 505.8 kPa	20.278 kg/m3 and 20.282 kg/m3
283.15 K, 605 kPa	24.935 kg/m3 and 24.932 kg/m3
283.15 K, 651.6 kPa	27.227 kg/m3
283.15 K, 651.7 kPa	27.238 kg/m3
283.15 K, 700.8 kPa	29.729 kg/m3 and 29.728 kg/m3
283.15 K, 750.8 kPa	32.363 kg/m3 and 32.361 kg/m3
283.15 K, 781.5 kPa	34.03 kg/m3
283.15 K, 781.6 kPa	34.039 kg/m3
283.15 K, 801.7 kPa	35.15 kg/m3
283.15 K, 801.8 kPa	35.164 kg/m3
283.15 K, 820.2 kPa	36.196 kg/m3
283.15 K, 820.3 kPa	36.205 kg/m3
293.15 K, 201.7 kPa	7.219 kg/m3
293.15 K, 201.8 kPa	7.222 kg/m3
293.15 K, 400.3 kPa	14.916 kg/m3 and 14.915 kg/m3
293.15 K, 599.3 kPa	23.356 kg/m3 and 23.36 kg/m3
293.15 K, 701.3 kPa	28.031 kg/m3 and 28.028 kg/m3
293.15 K, 798.2 kPa	32.729 kg/m3 and 32.732 kg/m3
293.15 K, 898.7 kPa	37.925 kg/m3 and 37.921 kg/m3
293.15 K, 951 kPa	40.774 kg/m3
293.15 K, 999.6 kPa	43.532 kg/m3
293.15 K, 1030.9 kPa	45.365 kg/m3 and 45.355 kg/m3
293.15 K, 1048.7 kPa	46.429 kg/m3
293.15 K, 1048.8 kPa	46.429 kg/m3
293.15 K, 1071 kPa	47.788 kg/m3
293.15 K, 1071.1 kPa	47.784 kg/m3
293.15 K, 1089 kPa	48.896 kg/m3 and 48.901 kg/m3
303.15 K, 200 kPa	6.895 kg/m3 and 6.903 kg/m3
303.15 K, 400.9 kPa	14.305 kg/m3 and 14.313 kg/m3
303.15 K, 600.3 kPa	22.265 kg/m3
303.15 K, 600.4 kPa	22.265 kg/m3
303.15 K, 801.6 kPa	31.034 kg/m3 and 31.031 kg/m3
303.15 K, 1001 kPa	40.662 kg/m3 and 40.666 kg/m3
303.15 K, 1099.9 kPa	45.879 kg/m3 and 45.88 kg/m3
303.15 K, 1197.3 kPa	51.364 kg/m3 and 51.363 kg/m3
303.15 K, 1249.2 kPa	54.458 kg/m3
303.15 K, 1299.5 kPa	57.578 kg/m3 and 57.581 kg/m3
303.15 K, 1340.6 kPa	60.231 kg/m3 and 60.229 kg/m3
303.15 K, 1369.8 kPa	62.181 kg/m3 and 62.183 kg/m3
303.15 K, 1401.5 kPa	64.363 kg/m3 and 64.364 kg/m3
303.15 K, 1423.7 kPa	65.925 kg/m3
303.15 K, 1423.9 kPa	65.952 kg/m3
313.15 K, 201.5 kPa	6.696 kg/m3
313.15 K, 201.8 kPa	6.718 kg/m3
313.15 K, 205.1 kPa	6.831 kg/m3 and 6.828 kg/m3
313.15 K, 206.2 kPa	6.869 kg/m3
313.15 K, 401.6 kPa	13.776 kg/m3
313.15 K, 401.7 kPa	13.775 kg/m3
313.15 K, 600.3 kPa	21.275 kg/m3 and 21.282 kg/m3
313.15 K, 800.3 kPa	29.41 kg/m3 and 29.413 kg/m3
313.15 K, 999.1 kPa	38.197 kg/m3 and 38.204 kg/m3
313.15 K, 1200.3 kPa	47.988 kg/m3 and 48.002 kg/m3
313.15 K, 1400.2 kPa	58.893 kg/m3 and 58.909 kg/m3
313.15 K, 1500.8 kPa	64.963 kg/m3 and 64.977 kg/m3
313.15 K, 1540.9 kPa	67.443 kg/m3 and 67.442 kg/m3
313.15 K, 1598 kPa	71.29 kg/m3
313.15 K, 1598.1 kPa	71.312 kg/m3
313.15 K, 1648.3 kPa	74.652 kg/m3 and 74.647 kg/m3
313.15 K, 1701.3 kPa	78.498 kg/m3 and 78.51 kg/m3
313.15 K, 1740.8 kPa	81.517 kg/m3 and 81.508 kg/m3
313.15 K, 1771.1 kPa	83.916 kg/m3 and 83.908 kg/m3
313.15 K, 1793.2 kPa	85.73 kg/m3
313.15 K, 1794.4 kPa	85.811 kg/m3
